Test results as given in ChEMBL document CHEMBL5357030, “Caged Xanthones and Biphenyls Isolated from the Tropical Plant Garcinia lateriflora” (J Nat Prod, 2024).

Assays:
Format in all cases: functional, cell-based
A549 = assay: Antiproliferative activity against human A549 cells assessed as inhibition of cell growth incubated for 72 hrs by SRB assay; details: A549, 72 h
MDA-MB-231 = assay: Antiproliferative activity against triple negative human MDA-MB-231 cells assessed as inhibition of cell growth incubated for 72 hrs by SRB assay; details: MDA-MB-231, 72 h
MCF7 = assay: Antiproliferative activity against HER2-negative human MCF7 cells assessed as inhibition of cell growth incubated for 72 hrs by SRB assay; details: MCF7, 72 h
KB = assay: Antiproliferative activity against human KB cells assessed as inhibition of cell growth incubated for 72 hrs by SRB assay
[1] = Antiproliferative activity against human KB-VIN cells overexpressing p-gp assessed as inhibition of cell growth incubated for 72 hrs by SRB assay; details: KBVIN

In the case of `C=CC(C)(C)c1c2c(c(O)c3c1O[C@]14[C@H](C3=O)[C@@H](OC)[C@H]3C[C@H]1C(C)(C)O[C@@]4(C/C=C(\C)C(=O)O)C3=O)C=CC(C)(C)O2`, the IC50 (A549) is reported as > 10 µM, the IC50 (MDA-MB-231) is reported as > 10 µM and the IC50 (MCF7) is reported as 10.4 µM. For the same compound, the IC50 (KB) was 6.1 µM and the IC50 [1] was > 10 µM.

In the case of `C=CC(C)(C)c1c2c(c(O)c3c1O[C@]14C(=C[C@@H]5C[C@H]1C(C)(C)O[C@@]4(C/C=C(\C)C(=O)O)C5=O)C3=O)C=CC(C)(C)O2`, the IC50 (A549) is reported as 0.8 µM, the IC50 (MDA-MB-231) is reported as 0.5 µM and the IC50 (MCF7) is reported as 1.3 µM. The IC50 (KB) was 0.6 µM and the IC50 [1] was 0.6 µM.

For `C=CC(C)(C)c1c2c(c(O)c3c1OC(C)(C)[C@H]1CCC(C)=C[C@@H]31)C(=O)C1=C[C@@H]3C[C@H]4C(C)(C)O[C@@](C/C=C(\C)C(=O)O)(C3=O)[C@@]14O2`, the IC50 (A549) was 2.9 µM, the IC50 (MDA-MB-231) was 4.6 µM and the IC50 (MCF7) was 5.6 µM. It also gave an IC50 (KB) of 1.2 µM and an IC50 [1] of 5.2 µM.

Work on `C=CC(C)(C)c1c2c(c(O)c3c1OC(C)(C)[C@H]1CCC(C)=C[C@@H]31)C(=O)[C@@H]1[C@@H](OC)[C@@H]3C[C@H]4C(C)(C)O[C@@](C/C=C(\C)C(=O)O)(C3=O)[C@@]14O2` yielded an IC50 (A549) of 5.6 µM, an IC50 (MDA-MB-231) of 5.7 µM and an IC50 (MCF7) of 6.4 µM. The IC50 (KB) was 5.2 µM and the IC50 [1] was 5.2 µM.

For `C=CC(C)(C)c1c2c(c(O)c3c1OC(C)(C)[C@H]1CCC(C)=C[C@@H]31)C(=O)[C@@H]1[C@@H](O)[C@@H]3C[C@H]4C(C)(C)O[C@@](C/C=C(\C)C(=O)O)(C3=O)[C@@]14O2`, the IC50 (A549) was 6.1 µM, the IC50 (MDA-MB-231) was 6.4 µM and the IC50 (MCF7) was 6.7 µM. The IC50 (KB) was 5.3 µM and the IC50 [1] was 5.7 µM.

In the case of `COc1cc(-c2ccc(O)c(C/C=C(/C)CO)c2)cc(O)c1O`, the IC50 (A549) is reported as > 10 µM, the IC50 (MDA-MB-231) is reported as > 10 µM and the IC50 (MCF7) is reported as > 10 µM. For the same compound, the IC50 (KB) was > 10 µM and the IC50 [1] was > 10 µM.

With `COc1cc(-c2ccc(O)c(CCC(C)CO)c2)cc(O)c1O` (stereo not drawn) the IC50 (A549) was > 10 µM, the IC50 (MDA-MB-231) was > 10 µM and the IC50 (MCF7) was > 10 µM. The IC50 (KB) was > 10 µM and the IC50 [1] was > 10 µM.

With `COc1c(O)c(O)cc(-c2ccccc2)c1CC=C(C)C` the IC50 (A549) was > 10 µM, the IC50 (MDA-MB-231) was > 10 µM and the IC50 (MCF7) was > 10 µM. The IC50 (KB) was > 10 µM and the IC50 [1] was > 10 µM.

With `COc1cc(-c2ccc3c(c2)C=CC(C)(C)O3)cc(O)c1O` the IC50 (A549) was > 10 µM, the IC50 (MDA-MB-231) was > 10 µM and the IC50 (MCF7) was > 10 µM. For the same compound, the IC50 (KB) was > 10 µM and the IC50 [1] was > 10 µM.

In the case of `C=CC(C)(C)c1c2c(c(O)c3c1OC(C)(C)[C@H]1CCC(C)=C[C@@H]31)C(=O)C1=C[C@@H]3C[C@H]4C(C)(C)O[C@@](C/C=C(/C)C(=O)O)(C3=O)[C@@]14O2`, the IC50 (A549) is reported as 3 µM, the IC50 (MDA-MB-231) is reported as 2.9 µM and the IC50 (MCF7) is reported as 3.2 µM. The IC50 (KB) was 1.8 µM and the IC50 [1] was 4 µM.

In the case of `CC(=O)O[C@H]1C(=O)[C@@]2(C)[C@H]([C@H](OC(=O)c3ccccc3)[C@]3(O)C[C@H](OC(=O)[C@H](O)[C@@H](NC(=O)c4ccccc4)c4ccccc4)C(C)=C1C3(C)C)[C@]1(OC(C)=O)CO[C@@H]1C[C@@H]2O` [PACLITAXEL], the IC50 (MDA-MB-231) is reported as 0.0009 µM, the IC50 (KB) is reported as < 0.0001 µM and the IC50 [1] is reported as 2.2 µM.
